Measurements from patent US20140350273A1, “PEDIATRIC USES OF CABAZITAXEL” (AVENTIS PHARMA S.A., priority 2012, published 2014).
Read-outs that look alike come from different tables or passages of the source.

Tested on: human osteosarcoma DM77
Assay type: in vivo
Conditions: for Tumor Volume Data (Day 21) Median / ΔT/ΔC % / ΔT/ΔC: day 21; for MTTE / T-C: volume endpoint 1400 mm^3
Method: In the reported examples supporting this invention, vials of the clinical formulation of cabazitaxel and docetaxel were used. […] The resultant solution contains 10 mg/mL of cabazitaxel. Stock solution of cabazitaxel was then diluted in 0.9% sodium chloride.
This efficacy may be quantified, for example, as changes in tumor volume for each treated (T) and control (C) group, which are calculated for each animal and each day by subtracting the tumor volume on the day of first treatment (staging day) from the tumor volume on the specified observation day. This allows calculating the tumor growth inhibition: ΔT/ΔC=(median delta T/median delta C)×100. Individual tumor volume changes from baseline are thereafter analyzed by a non-parametric two-way ANOVA-TYPE (with factors: group and repeated days) followed by a post-hoc contrasts analysis, with Bonferroni-Holm adjustment for multiplicity, comparing all treated groups to the control group. […] A probability less than 5% (p<0.05) was considered as significant.
Based on the National Cancer Institute (NCl) standards, a ΔT/ΔC≦40% is the minimal level required to declare activity.
This efficacy may also be quantified by the number of tumor regressions observed after therapy. Individual mice reporting a tumor volume ≦50% of the Day 0 measurement for two consecutive measurements over a seven day period were considered partial responders (PR). Individual mice lacking palpable tumors (<4×4 mm^2 for two consecutive measurements over a seven day period) were classified as complete responders (CR); a CR that persisted until study completion was considered a tumor-free survivor (TFS).
Efficacy could also be determined at study completion, using tumor growth delay (T-C) in days, which is calculated using the median time to endpoint (MTTE) value for each treatment (T) group versus control (C). A Log Rank multiple comparison test with Bonferroni-Holm adjustment for multiplicity was applied on individual TTE to compare the treated groups to the control group.
The efficacy of cabazitaxel in comparison with docetaxel on pediatric patient-derived tumor xenografts was determined experimentally in the following manner:
The animals subjected to the experiment are subcutaneously grafted unilaterally with approximately 30 mg of a tumor fragment from low passage pediatric patient-derived tumor xenografts. The animals are implanted with a human patient-derived pediatric tumor xenografted in immuno-compromised mice (Harlan; nu/nu). Several days post tumor implantation, mice are randomized according to their tumor burden to the different groups of treatments and controls. The agents are dosed intravenously at 5.8, 9.3, 15 or 24.2 mg/kg every 4 days for a total of 3 doses (q4d×3) to mice bearing a tumor burden at start of therapy (day 0) ranged from 125 to 250 mm^3.
Beginning Day 0, animals were observed daily and weighed twice weekly using a digital scale; data including individual and mean gram weights (Mean We±SD), mean percent weight change versus Day 0 were recorded for each group. Animal deaths were recorded daily and designated as drug-related (D), technical (T), tumor related (B), or unknown (U) based on weight loss and gross observation; single agent or combination groups reporting a mean >20% for a period of 7 days and/or >10% mortality were considered above the maximum tolerated dose (MTD) for that treatment on the evaluated regimen.
The selected tumor model, DM77, was a low passage patient-derived tumor xenograft derived from an osteosarcoma taken from the lung of a patient. […]

CC(=O)O[C@@]12CO[C@@H]1C[C@H](O)[C@@]1(C)C(=O)[C@H](O)C3=C(C)[C@@H](OC(=O)[C@H](O)[C@@H](NC(=O)OC(C)(C)C)c4ccccc4)C[C@@](O)([C@@H](OC(=O)c4ccccc4)[C@H]21)C3(C)C [Docetaxel, docetaxel]
#CR (5.8 mg/kg i.v./q4dx3): 0/0/0 | #PR (5.8 mg/kg i.v./q4dx3): 0/0/0 | #TFS (5.8 mg/kg i.v./q4dx3): 0/0/0 | Drug Deaths Total (5.8 mg/kg i.v./q4dx3): 0 | Weight Change at Nadir % (5.8 mg/kg i.v./q4dx3): −6% | Weight Change at Nadir Day (5.8 mg/kg i.v./q4dx3): 11 days | Tumor Volume Data (Day 21) Median (5.8 mg/kg i.v./q4dx3): 300 mm^3 | ΔT/ΔC % (5.8 mg/kg i.v./q4dx3): 18.5% | MTTE (5.8 mg/kg i.v./q4dx3): 53 days | T-C (5.8 mg/kg i.v./q4dx3): 28 days | ΔT/ΔC (5.8 mg/kg q4d×3 IV): 18.5% | tumor volume changes from baseline, Median +/− nMAD (5.8 mg/kg, DAY 4): 47 +/− 47 | tumor volume changes from baseline, Median +/− nMAD (5.8 mg/kg, DAY 7): 73 +/− 23 | tumor volume changes from baseline, Median +/− nMAD (5.8 mg/kg, DAY 11): 122 +/− 56 | tumor volume changes from baseline, Median +/− nMAD (5.8 mg/kg, DAY 14): 129 +/− 63 | tumor volume changes from baseline, Median +/− nMAD (5.8 mg/kg, DAY 18): 169 +/− 116 | tumor volume changes from baseline, Median +/− nMAD (5.8 mg/kg, DAY 21): 169 +/− 103 | tumor volume changes from baseline, Median +/− nMAD (5.8 mg/kg, DAY 25): 217 +/− 151 | tumor volume changes from baseline, Median +/− nMAD (5.8 mg/kg, DAY 28): 290 +/− 198 | tumor volume changes from baseline, Median +/− nMAD (5.8 mg/kg, DAY 32): 332 +/− 266 | tumor volume changes from baseline, Median +/− nMAD (5.8 mg/kg, DAY 35): 342 +/− 250 | tumor volume changes from baseline, Median +/− nMAD (5.8 mg/kg, DAY 39): 342 +/− 121 | tumor volume changes from baseline, Median +/− nMAD (5.8 mg/kg, DAY 42): 401 +/− 169.5 | tumor volume changes from baseline, Median +/− nMAD (5.8 mg/kg, DAY 46): 546 +/− 185.5 | tumor volume changes from baseline, Median +/− nMAD (5.8 mg/kg, DAY 49): 512 +/− 142 | tumor volume changes from baseline, Median +/− nMAD (5.8 mg/kg, DAY 53): 657.5 | tumor volume changes from baseline, Median +/− nMAD (5.8 mg/kg, DAY 56): 875.5 | #CR (9.3 mg/kg i.v./q4dx3): 0/0/0 | #PR (9.3 mg/kg i.v./q4dx3): 0/0/0 | #TFS (9.3 mg/kg i.v./q4dx3): 0/0/0 | Drug Deaths Total (9.3 mg/kg i.v./q4dx3): 0 | Weight Change at Nadir % (9.3 mg/kg i.v./q4dx3): −7% | Weight Change at Nadir Day (9.3 mg/kg i.v./q4dx3): 14 days | Tumor Volume Data (Day 21) Median (9.3 mg/kg i.v./q4dx3): 266 mm^3 | ΔT/ΔC % (9.3 mg/kg i.v./q4dx3): 9.6% | MTTE (9.3 mg/kg i.v./q4dx3): >60 days | T-C (9.3 mg/kg i.v./q4dx3): >35 days | numbers of PR (9.3 mg/kg q4d×3 IV): 0/9 | ΔT/ΔC (9.3 mg/kg q4d×3 IV): 9.6% | tumor volume changes from baseline, Median +/− nMAD (9.3 mg/kg, DAY 4): 87 +/− 40 | tumor volume changes from baseline, Median +/− nMAD (9.3 mg/kg, DAY 7): 87 +/− 42 | tumor volume changes from baseline, Median +/− nMAD (9.3 mg/kg, DAY 11): 96 +/− 77 | tumor volume changes from baseline, Median +/− nMAD (9.3 mg/kg, DAY 14): 96 +/− 69 | tumor volume changes from baseline, Median +/− nMAD (9.3 mg/kg, DAY 18): 96 +/− 69 | tumor volume changes from baseline, Median +/− nMAD (9.3 mg/kg, DAY 21): 88 +/− 74 | tumor volume changes from baseline, Median +/− nMAD (9.3 mg/kg, DAY 25): 124 +/− 93 | tumor volume changes from baseline, Median +/− nMAD (9.3 mg/kg, DAY 28): 124 +/− 171 | tumor volume changes from baseline, Median +/− nMAD (9.3 mg/kg, DAY 32): 154 +/− 201 | tumor volume changes from baseline, Median +/− nMAD (9.3 mg/kg, DAY 35): 169 +/− 235 | tumor volume changes from baseline, Median +/− nMAD (9.3 mg/kg, DAY 39): 202 +/− 268 | tumor volume changes from baseline, Median +/− nMAD (9.3 mg/kg, DAY 42): 309 +/− 375 | tumor volume changes from baseline, Median +/− nMAD (9.3 mg/kg, DAY 46): 309 +/− 375 | tumor volume changes from baseline, Median +/− nMAD (9.3 mg/kg, DAY 49): 424.5 | tumor volume changes from baseline, Median +/− nMAD (9.3 mg/kg, DAY 53): 542 +/− 447.5 | tumor volume changes from baseline, Median +/− nMAD (9.3 mg/kg, DAY 56): 493 +/− 238 | #CR (15 mg/kg i.v./q4dx3): 0 | #PR (15 mg/kg i.v./q4dx3): 3 | #TFS (15 mg/kg i.v./q4dx3): 0 | Drug Deaths Total (15 mg/kg i.v./q4dx3): 0 | Weight Change at Nadir % (15 mg/kg i.v./q4dx3): −14% | Weight Change at Nadir Day (15 mg/kg i.v./q4dx3): 11 days | Tumor Volume Data (Day 21) Median (15 mg/kg i.v./q4dx3): 78 mm^3 | ΔT/ΔC % (15 mg/kg i.v./q4dx3): −5.9% | MTTE (15 mg/kg i.v./q4dx3): >60 days | T-C (15 mg/kg i.v./q4dx3): >35 days | tumor volume changes from baseline, Median +/− nMAD (15 mg/kg, DAY 4): 66 +/− 66 | tumor volume changes from baseline, Median +/− nMAD (15 mg/kg, DAY 7): 73 +/− 73 | tumor volume changes from baseline, Median +/− nMAD (15 mg/kg, DAY 11): −41 +/− 41 | tumor volume changes from baseline, Median +/− nMAD (15 mg/kg, DAY 14): −41 +/− 41 | tumor volume changes from baseline, Median +/− nMAD (15 mg/kg, DAY 18): −53 +/− 17 | tumor volume changes from baseline, Median +/− nMAD (15 mg/kg, DAY 21): −54 +/− 12 | tumor volume changes from baseline, Median +/− nMAD (15 mg/kg, DAY 25): −66 +/− 17 | tumor volume changes from baseline, Median +/− nMAD (15 mg/kg, DAY 28): −66 +/− 17 | tumor volume changes from baseline, Median +/− nMAD (15 mg/kg, DAY 32): −66 +/− 17 | tumor volume changes from baseline, Median +/− nMAD (15 mg/kg, DAY 35): −66 +/− 13 | tumor volume changes from baseline, Median +/− nMAD (15 mg/kg, DAY 39): −66 +/− 13 | tumor volume changes from baseline, Median +/− nMAD (15 mg/kg, DAY 42): −66 +/− 13 | tumor volume changes from baseline, Median +/− nMAD (15 mg/kg, DAY 46): −58 +/− 11 | tumor volume changes from baseline, Median +/− nMAD (15 mg/kg, DAY 49): −58 +/− 11 | tumor volume changes from baseline, Median +/− nMAD (15 mg/kg, DAY 53): −58 +/− 11 | tumor volume changes from baseline, Median +/− nMAD (15 mg/kg, DAY 56): −58 +/− 11 | #CR (24.2 mg/kg i.v./q4dx3): 1 | #PR (24.2 mg/kg i.v./q4dx3): 6 | #TFS (24.2 mg/kg i.v./q4dx3): 1 | Drug Deaths Total (24.2 mg/kg i.v./q4dx3): 0 | Weight Change at Nadir % (24.2 mg/kg i.v./q4dx3): −17% | Weight Change at Nadir Day (24.2 mg/kg i.v./q4dx3): 14 days | Tumor Volume Data (Day 21) Median (24.2 mg/kg i.v./q4dx3): 71.5 mm^3 | ΔT/ΔC % (24.2 mg/kg i.v./q4dx3): −6.1% | MTTE (24.2 mg/kg i.v./q4dx3): >60 days | T-C (24.2 mg/kg i.v./q4dx3): >35 days | tumor volume changes from baseline, Median +/− nMAD (24.2 mg/kg, DAY 4): 0 +/− 0 | tumor volume changes from baseline, Median +/− nMAD (24.2 mg/kg, DAY 7): 0 +/− 0 | tumor volume changes from baseline, Median +/− nMAD (24.2 mg/kg, DAY 11): −50 +/− 24 | tumor volume changes from baseline, Median +/− nMAD (24.2 mg/kg, DAY 14): −55.5 +/− 20 | tumor volume changes from baseline, Median +/− nMAD (24.2 mg/kg, DAY 18): −55.5 +/− 20 | tumor volume changes from baseline, Median +/− nMAD (24.2 mg/kg, DAY 21): −55.5 +/− 10.5 | tumor volume changes from baseline, Median +/− nMAD (24.2 mg/kg, DAY 25): −55.5 +/− 10.5 | tumor volume changes from baseline, Median +/− nMAD (24.2 mg/kg, DAY 28): −53.5 +/− 13 | tumor volume changes from baseline, Median +/− nMAD (24.2 mg/kg, DAY 32): −53.5 +/− 33 | tumor volume changes from baseline, Median +/− nMAD (24.2 mg/kg, DAY 35): −57.5 +/− 45.5 | tumor volume changes from baseline, Median +/− nMAD (24.2 mg/kg, DAY 39): −57.5 | tumor volume changes from baseline, Median +/− nMAD (24.2 mg/kg, DAY 42): −57.5 | tumor volume changes from baseline, Median +/− nMAD (24.2 mg/kg, DAY 46): −57.5 | tumor volume changes from baseline, Median +/− nMAD (24.2 mg/kg, DAY 49): −48 +/− 45.5 | tumor volume changes from baseline, Median +/− nMAD (24.2 mg/kg, DAY 53): −48 +/− 69.5 | tumor volume changes from baseline, Median +/− nMAD (24.2 mg/kg, DAY 56): −48 +/− 69.5
